These results are taken from patent publication US20230002327A1, “SMALL-MOLECULE REGULATOR OF TLR8” (TSINGHUA UNIVERSITY, priority 2019, published 2023).

One data set deals with HEK-Blue hTLR8 cell line. Briefly: Toxicity test of compounds (CCK-8 cell viability). Format: cell-based, human. Also on record: key to WST1 (normalized toxicity effect): viability relative to control well (background-subtracted OD), 1 = control. The note with it: normalized cell viability, HEK-Blue cell lines. The method, then:
In the 96-well plate used for the above-mentioned activity test of compounds (remaining 50 μL of culture medium containing cells), 5 μL of CellCountingKit-8 (CCK-8) Supermix was added to each well. Note that the introduction of air bubbles into the wells should be avoided since the air bubbles would interfere with the detection of OD value.
The culture plate was incubated in an incubator for 1 to 4 hours,
The edge of the 96-well plate could be tapped gently before reading the plate, and then the absorbance at 450 nm was measured by using the multi-mode plate reader.
Cell viability (%) was determined using the following formula: cell viability (%)=([Compound well ([…])−Background well (OD450)]/[Control well ([…])−Background well (OD450)])×100%. Among these, the background well was only added with the medium and CCK-8 reagent, the control well was only added with the medium, cells, R848 and CCK-8, and the compound wells were added with the medium, cells, R848, compounds in different concentrations, and CCK-8.

The next data set deals with T1, TLR7 (Homo sapiens, UniProt Q9NYK1).
T1 construct: host or cells: HEK-Blue hTLR7 (HEK293-derived SEAP reporter cells)
T1 sequence (Q9NYK1 27-1049): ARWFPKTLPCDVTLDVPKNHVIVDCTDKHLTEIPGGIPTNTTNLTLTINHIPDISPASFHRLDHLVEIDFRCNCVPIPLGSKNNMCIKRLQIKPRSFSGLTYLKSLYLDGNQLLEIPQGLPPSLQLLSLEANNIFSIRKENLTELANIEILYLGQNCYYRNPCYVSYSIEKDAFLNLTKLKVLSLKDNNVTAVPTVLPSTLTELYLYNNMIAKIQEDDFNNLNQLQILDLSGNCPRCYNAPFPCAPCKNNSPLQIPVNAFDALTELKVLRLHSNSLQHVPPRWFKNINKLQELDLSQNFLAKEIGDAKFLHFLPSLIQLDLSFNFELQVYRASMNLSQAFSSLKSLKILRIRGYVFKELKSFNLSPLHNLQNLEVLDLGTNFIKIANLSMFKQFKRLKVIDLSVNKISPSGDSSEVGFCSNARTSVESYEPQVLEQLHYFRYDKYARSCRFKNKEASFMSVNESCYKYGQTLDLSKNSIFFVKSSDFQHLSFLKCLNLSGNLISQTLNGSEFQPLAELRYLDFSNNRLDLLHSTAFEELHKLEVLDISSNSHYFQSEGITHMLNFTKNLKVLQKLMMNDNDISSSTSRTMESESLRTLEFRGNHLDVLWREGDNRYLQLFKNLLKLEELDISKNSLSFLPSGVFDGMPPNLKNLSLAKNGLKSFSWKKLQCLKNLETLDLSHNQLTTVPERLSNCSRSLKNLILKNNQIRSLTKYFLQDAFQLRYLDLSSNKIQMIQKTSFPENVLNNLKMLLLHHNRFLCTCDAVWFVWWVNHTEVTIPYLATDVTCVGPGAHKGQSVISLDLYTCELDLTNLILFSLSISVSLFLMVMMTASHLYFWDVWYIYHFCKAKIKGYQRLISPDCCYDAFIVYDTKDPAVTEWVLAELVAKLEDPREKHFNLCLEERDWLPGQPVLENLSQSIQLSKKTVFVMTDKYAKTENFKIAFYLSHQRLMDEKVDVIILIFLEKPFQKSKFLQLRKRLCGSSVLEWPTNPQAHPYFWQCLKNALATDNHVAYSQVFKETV
Briefly: Inhibition of R848-induced signaling in HEK-Blue hTLR7 cell line (Quanti-Blue). The data set is classed as cell-based. As to the method:
(§1) HEK Blue hTLR8 cells or HEK Blue hTLR7 cells were cultured in DMEM medium supplemented with 10% fetal bovine serum, penicillin (100 U/mL) and streptomycin ([…]). Thereafter, cells were seeded in 96-well plate (45,000 cells per well), and were cultured for 24 hours in a humidified incubator (37° C., 5% CO2).
After 24 hours, the supernatant and suspending cells were aspirated and replaced with fresh serum-free DMEM. Cells were treated with 1 μg/mL of R848 (agonist of TLR7/8) or 5 μg/mL of ssRNA40/LyoVec or 5 μg/mL of ORN06/LyoVec (InvivoGen) and compounds with specified concentrations, and were placed in a humidified incubator (37° C., 5% CO2) for co-culture.
(§2) After 24 hours, 50 μL of the medium was aspirated from each well and then added to a new 96-well plate, followed by the addition of 50 μL of Quanti-Blue in each well and the incubation at 37° C. in darkness. Changes in color would occur in the […] within 60 minutes, and the absorbance was measured at 620 nm by using the multi-mode plate reader Vrioskan Flash. Inhibition rate (%)=[R848 (OD620)−Compound (OD620)]/[R848 (OD620)−Control (OD620)]×100%. Among these, the control group was only added with the same amount of cells. Finally, the software Prism 6.0 was utilized to plot a graph and calculate IC50 values. Or, the activity of the cells treated with ligand and DMSO was defined as 100% activity, and the activity of the untreated cells was defined as 0% activity.

The target of another data set is T2, TLR8 (Homo sapiens, UniProt Q9NR97).
T2 construct: host or cells: HEK-Blue hTLR8 (HEK293-derived SEAP reporter cells)
T2 sequence (Q9NR97 27-1041): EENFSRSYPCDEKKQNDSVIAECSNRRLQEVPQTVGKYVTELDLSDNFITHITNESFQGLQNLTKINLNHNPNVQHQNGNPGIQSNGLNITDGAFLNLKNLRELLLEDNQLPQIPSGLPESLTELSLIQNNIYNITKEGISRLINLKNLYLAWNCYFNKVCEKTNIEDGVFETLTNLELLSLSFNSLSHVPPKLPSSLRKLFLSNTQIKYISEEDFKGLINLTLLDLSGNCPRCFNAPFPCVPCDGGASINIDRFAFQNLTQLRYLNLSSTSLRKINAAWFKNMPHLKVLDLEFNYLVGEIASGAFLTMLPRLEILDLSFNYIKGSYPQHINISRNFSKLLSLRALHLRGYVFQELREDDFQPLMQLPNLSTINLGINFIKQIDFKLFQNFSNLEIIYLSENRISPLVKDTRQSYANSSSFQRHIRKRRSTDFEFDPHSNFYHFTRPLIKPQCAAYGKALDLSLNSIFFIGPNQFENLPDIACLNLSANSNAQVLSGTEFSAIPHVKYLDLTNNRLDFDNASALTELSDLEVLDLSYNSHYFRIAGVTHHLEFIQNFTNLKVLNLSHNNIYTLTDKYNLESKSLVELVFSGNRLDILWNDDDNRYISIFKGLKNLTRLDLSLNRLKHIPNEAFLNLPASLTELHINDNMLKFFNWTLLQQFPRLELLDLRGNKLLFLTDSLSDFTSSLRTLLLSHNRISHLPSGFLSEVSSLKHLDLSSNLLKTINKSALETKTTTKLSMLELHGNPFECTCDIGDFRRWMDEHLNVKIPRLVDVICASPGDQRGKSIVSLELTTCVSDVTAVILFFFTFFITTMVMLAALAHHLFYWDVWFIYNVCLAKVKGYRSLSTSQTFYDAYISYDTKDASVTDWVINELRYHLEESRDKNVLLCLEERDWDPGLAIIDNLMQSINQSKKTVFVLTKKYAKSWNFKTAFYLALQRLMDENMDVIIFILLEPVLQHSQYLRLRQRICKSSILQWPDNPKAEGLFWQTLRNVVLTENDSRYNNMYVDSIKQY
Briefly: Inhibition of R848-induced signaling in HEK-Blue hTLR8 cell line (Quanti-Blue). The data set is classed as cell-based. The following applies: HEK-Blue hTLR8 cell line; normalized, ligand+DMSO = 100% activity, untreated = 0%. The method, then: as §1
After 24 hours, the supernatant and suspending cells were aspirated and replaced with fresh serum-free DMEM.
as §2

For `CCOCc1ncc(-c2ccccc2)n1CC(C)C` [Compound 55, 2-(ethoxymethyl)-1-(2-methylpropyl)-5-phenyl-1H-imidazole], in the data set with HEK-Blue hTLR8 cell line, the “WST1 (normalized toxicity effect)” value amounted to 0.9 ± 0.3. On TLR7, the “TLR7 (normalized inhibitory effect on R848-induced signaling)” value is 0.6 ± 0.2. For the same compound, the “Remaining R848-induced TLR8 signaling (normalized activity; ligand+DMSO = 1, untreated = 0)” value at TLR8 turned out to be 0.8 ± 0.1.

In the case of `CCOCc1nc(C(=N)N)c(-c2ccccc2)n1CC(C)(C)O` [Compound 39, 2-(ethoxymethyl)-1-(2-hydroxy-2-methylpropyl)-5-phenyl-1H-imidazole-4-carboxamidine], the “WST1 (normalized toxicity effect)” value in the data set on HEK-Blue hTLR8 cell line was 0.7 ± 0.2. In addition, the “TLR7 (normalized inhibitory effect on R848-induced signaling)” value at TLR7 came out at 0.8 ± 0.1. At TLR8, the “Remaining R848-induced TLR8 signaling (normalized activity; ligand+DMSO = 1, untreated = 0)” value is recorded as 1.0 ± 0.2.

Turning to `CCOCc1nc(Br)c(-c2ccccc2)n1CC(C)(C)O` [Compound 52, 1-[4-bromo-2-(ethoxymethyl)-5-phenyl-1H-imidazole-1-yl]-2-methylpropan-2-ol], the “WST1 (normalized toxicity effect)” value in the data set on HEK-Blue hTLR8 cell line was determined as 1.1 ± 0.3. Further, the “TLR7 (normalized inhibitory effect on R848-induced signaling)” value at TLR7 is on record as 0.8 ± 0.2. In addition, at TLR8, the “Remaining R848-induced TLR8 signaling (normalized activity; ligand+DMSO = 1, untreated = 0)” value came to 0.3 ± 0.2.

In the case of `CCOCc1nc(Cl)c(-c2ccccc2)n1CC(C)(C)O` [Compound 51, 1-[4-chloro-2-(ethoxymethyl)-5-phenyl-1H-imidazole-1-yl]-2-methylpropan-2-ol], in the data set on HEK-Blue hTLR8 cell line, the “WST1 (normalized toxicity effect)” value turned out to be 0.9 ± 0.2. In addition, the “TLR7 (normalized inhibitory effect on R848-induced signaling)” value on TLR7 is given as 1.1 ± 0.2. Moreover, the “Remaining R848-induced TLR8 signaling (normalized activity; ligand+DMSO = 1, untreated = 0)” value at TLR8 turned out to be 0.6 ± 0.1.

Consider `CCOCc1nc(Cl)c(-c2ccccc2)n1CC(C)C` [Compound 56, 4-chloro-2-(ethoxymethyl)-1-(2-methylpropyl)-5-phenyl-1H-imidazole], for which the “WST1 (normalized toxicity effect)” value in the data set with HEK-Blue hTLR8 cell line was determined as 0.7 ± 0.2. The “TLR7 (normalized inhibitory effect on R848-induced signaling)” value at TLR7 came out at 0.6 ± 0.2. The “Remaining R848-induced TLR8 signaling (normalized activity; ligand+DMSO = 1, untreated = 0)” value on TLR8 is recorded as 0.5 ± 0.2.

In the case of `CCOCc1nc(C(=O)O)c(-c2ccccc2)n1CC(C)(C)O` [Compound 54, 2-(ethoxymethyl)-1-(2-hydroxy-2-methylpropyl)-5-phenyl-1H-imidazole-4-carboxylic acid], in the data set on HEK-Blue hTLR8 cell line, the “WST1 (normalized toxicity effect)” value turned out to be 1.1 ± 0.3. Besides, at TLR7, the “TLR7 (normalized inhibitory effect on R848-induced signaling)” value stood at 0.9 ± 0.2. For the same compound, at TLR8, the “Remaining R848-induced TLR8 signaling (normalized activity; ligand+DMSO = 1, untreated = 0)” value is reported as 0.9 ± 0.2.

Consider `CCOCc1ncc(-c2ccccc2)n1CC(C)(C)O` [Compound 50, 1-[2-(ethoxymethyl)-5-phenyl-1H-imidazole-1-yl]-2-methylpropan-2-ol], for which the “WST1 (normalized toxicity effect)” value in the data set with HEK-Blue hTLR8 cell line turned out to be 0.9 ± 0.2. Moreover, at TLR7, the “TLR7 (normalized inhibitory effect on R848-induced signaling)” value was found to be 1.0 ± 0.1. Further, the “Remaining R848-induced TLR8 signaling (normalized activity; ligand+DMSO = 1, untreated = 0)” value on TLR8 turned out to be 1.1 ± 0.3.

Turning to `CCOCc1nc(CO)c(-c2ccccc2)n1CC(C)(C)O` [Compound 43, 1-[2-(ethoxymethyl)-4-(hydroxymethyl)-5-phenyl-1H-imidazole-1-yl]-2-methylpropan-2-ol], the “WST1 (normalized toxicity effect)” value in the data set on HEK-Blue hTLR8 cell line stood at 0.8 ± 0.1. Further, on TLR7, the “TLR7 (normalized inhibitory effect on R848-induced signaling)” value was found to be 0.9 ± 0.2. The “Remaining R848-induced TLR8 signaling (normalized activity; ligand+DMSO = 1, untreated = 0)” value at TLR8 was 1.0 ± 0.2.

Take `CCOCc1nc(C)c(-c2ccccc2)n1CC(C)(C)O` [Compound 45, 1-[2-(ethoxymethyl)-4-methyl-5-phenyl-1H-imidazole-1-yl]-2-methylpropan-2-ol]: the “WST1 (normalized toxicity effect)” value in the data set on HEK-Blue hTLR8 cell line worked out at 0.8 ± 0.3. In addition, the “TLR7 (normalized inhibitory effect on R848-induced signaling)” value at TLR7 turned out to be 0.9 ± 0.1. Moreover, at TLR8, the “Remaining R848-induced TLR8 signaling (normalized activity; ligand+DMSO = 1, untreated = 0)” value worked out at 0.8 ± 0.2.

As for `CCOCc1nc(I)c(-c2ccc(-c3ccccc3)cc2)n1CC(C)(C)O` [Compound 60, 1-(5-([1,1′-biphenyl]-4-yl)-2-(ethoxymethyl)-4-iodo-1H-imidazole-1-yl)-2-methylpropan-2-ol], the “WST1 (normalized toxicity effect)” value in the data set on HEK-Blue hTLR8 cell line is given as 0.6 ± 0.1. In addition, at TLR7, the “TLR7 (normalized inhibitory effect on R848-induced signaling)” value was 1.0 ± 0.1. Also, the “Remaining R848-induced TLR8 signaling (normalized activity; ligand+DMSO = 1, untreated = 0)” value at TLR8 stood at 0.3 ± 0.1.

On to `CCOCc1nc(I)c(-c2ccccc2)n1CC(C)C` [Compound 58, 2-(ethoxymethyl)-4-iodo-1-(2-methylpropyl)-5-phenyl-1H-imidazole], for which, in the data set with HEK-Blue hTLR8 cell line, the “WST1 (normalized toxicity effect)” value was found to be 0.3 ± 0.2. Moreover, the “TLR7 (normalized inhibitory effect on R848-induced signaling)” value at TLR7 is listed as 0.1 ± 0.2. Moreover, on TLR8, the “Remaining R848-induced TLR8 signaling (normalized activity; ligand+DMSO = 1, untreated = 0)” value is on record as 0.01 ± 0.01.

On to `CCOCc1nc(I)c(-c2ccc3ccccc3c2)n1CC(C)(C)O` [Compound 63, 1-(2-(ethoxymethyl)-4-iodo-5-(naphthalen-2-yl)-1H-imidazole-1-yl)-2-methylpropan-2-ol], for which the “WST1 (normalized toxicity effect)” value in the data set with HEK-Blue hTLR8 cell line is 1.0 ± 0.1. Further, the “TLR7 (normalized inhibitory effect on R848-induced signaling)” value on TLR7 is on record as 0.9 ± 0.2. Moreover, on TLR8, the “Remaining R848-induced TLR8 signaling (normalized activity; ligand+DMSO = 1, untreated = 0)” value is 0.9 ± 0.1.
